ChEMBL document CHEMBL1201862, “PubChem BioAssay data set” (2004)
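Results reflect a 48-hour exposure of cells in 96-well plates to compound at five concentrations. GI50 marks 50% less growth.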 Calls of active or inactive are those of the source. No stated cut-off is given here; in the data, active = GI50 up to about 1.1 µM and inactive = higher.

Assays:
Assay in all cases: NCI-60 cell line screen, 48 h
A549 = test system: A549
DU-145 = test system: DU-145
HL-60 = test system: HL-60
HT-29 = test system: HT-29
Hs-578T = test system: Hs-578T
NCI-H460 = test system: NCI-H460
OVCAR-3 = test system: OVCAR-3
RXF 393 = test system: RXF 393
SF-268 = test system: SF-268
SF-295 = test system: SF-295
SK-MEL-28 = test system: SK-MEL-28
SK-MEL-2 = test system: SK-MEL-2
SN12C = test system: SN12C
SNB-75 = test system: SNB-75
SR = test system: SR
SW-620 = test system: SW-620
TK-10 = test system: TK-10
UACC-257 = test system: UACC-257
UO-31 = test system: UO-31
A498 = test system: A498

For `CN(C)c1ccc(/C=N\NC(=O)CSCC(=O)N/N=C/c2ccc(N(C)C)cc2)cc1`, the GI50 (A549) was 71.9 µM (inactive), the GI50 (DU-145) was 51.5 µM (inactive) and the GI50 (HL-60) was 70.5 µM (inactive). The GI50 (HT-29) was 78.5 µM (inactive), the GI50 (Hs-578T) was 20.6 µM (inactive) and the GI50 (NCI-H460) was 33.2 µM (inactive). For the same molecule, the GI50 (OVCAR-3) was 68.9 µM (inactive), the GI50 (RXF 393) was 24.9 µM (inactive) and the GI50 (SF-268) was > 100 µM (inactive). The GI50 (SF-295) was 31.1 µM (inactive), the GI50 (SK-MEL-28) was 63.8 µM (inactive) and the GI50 (SK-MEL-2) was 29.9 µM (inactive). The GI50 (SN12C) was 31.2 µM (inactive), the GI50 (SNB-75) was 56 µM (inactive) and the GI50 (SR) was 73.8 µM (inactive). The GI50 (SW-620) was > 100 µM (inactive), the GI50 (TK-10) was > 100 µM (inactive) and the GI50 (UACC-257) was > 100 µM (inactive). For the same molecule, the GI50 (UO-31) was 30.8 µM (inactive).
For `Cc1c(Cl)c(C)c(Cl)c(O)c1Cl`, the GI50 (A498) was 19 µM (inactive), the GI50 (A549) was 21.2 µM (inactive) and the GI50 (DU-145) was 37 µM (inactive). The GI50 (HL-60) was 18.7 µM (inactive), the GI50 (HT-29) was 48.5 µM (inactive) and the GI50 (Hs-578T) was 19.9 µM (inactive). The GI50 (NCI-H460) was 24.7 µM (inactive), the GI50 (OVCAR-3) was 19.5 µM (inactive) and the GI50 (RXF 393) was 26 µM (inactive). For the same molecule, the GI50 (SF-268) was 26.7 µM (inactive), the GI50 (SF-295) was 24.8 µM (inactive) and the GI50 (SK-MEL-28) was 38.4 µM (inactive). The GI50 (SK-MEL-2) was 13.2 µM (inactive), the GI50 (SN12C) was 24.2 µM (inactive) and the GI50 (SNB-75) was 23.9 µM (inactive). For the same molecule, the GI50 (SW-620) was 34.3 µM (inactive), the GI50 (TK-10) was 22.1 µM (inactive) and the GI50 (UACC-257) was 22.1 µM (inactive). The GI50 (UO-31) was 17.4 µM (inactive).
In the case of `COC(=O)c1ccccc1C1=C([N+](=O)[O-])C(c2ccccc2)C(C#N)=C(N)O1` (centres undefined), the GI50 (A549) is reported as > 100 µM (inactive), the GI50 (DU-145) is reported as 72.1 µM (inactive) and the GI50 (HL-60) is reported as 42.8 µM (inactive). For the same molecule, the GI50 (HT-29) was 96.6 µM (inactive), the GI50 (Hs-578T) was 18.1 µM (inactive) and the GI50 (NCI-H460) was > 100 µM (inactive). For the same molecule, the GI50 (OVCAR-3) was 24.7 µM (inactive), the GI50 (RXF 393) was 30.2 µM (inactive) and the GI50 (SF-268) was 31.8 µM (inactive). The GI50 (SF-295) was > 100 µM (inactive), the GI50 (SK-MEL-28) was > 100 µM (inactive) and the GI50 (SK-MEL-2) was > 100 µM (inactive). The GI50 (SN12C) was > 100 µM (inactive), the GI50 (SNB-75) was 96.2 µM (inactive) and the GI50 (SR) was 36.3 µM (inactive). For the same molecule, the GI50 (SW-620) was 35.9 µM (inactive), the GI50 (TK-10) was > 100 µM (inactive) and the GI50 (UACC-257) was > 100 µM (inactive).
With `Nc1nc(Cl)cc(NCC2(CO)CC(=O)C2)n1` the GI50 (A549) was > 100 µM (inactive), the GI50 (DU-145) was > 100 µM (inactive) and the GI50 (HL-60) was > 100 µM (inactive). The GI50 (HT-29) was > 100 µM (inactive), the GI50 (Hs-578T) was > 100 µM (inactive) and the GI50 (NCI-H460) was > 100 µM (inactive). For the same molecule, the GI50 (OVCAR-3) was > 100 µM (inactive), the GI50 (RXF 393) was > 100 µM (inactive) and the GI50 (SF-268) was > 100 µM (inactive). The GI50 (SF-295) was > 100 µM (inactive), the GI50 (SK-MEL-28) was > 100 µM (inactive) and the GI50 (SK-MEL-2) was > 100 µM (inactive). The GI50 (SN12C) was > 100 µM (inactive), the GI50 (SR) was > 100 µM (inactive) and the GI50 (SW-620) was > 100 µM (inactive). The GI50 (TK-10) was > 100 µM (inactive), the GI50 (UACC-257) was > 100 µM (inactive) and the GI50 (UO-31) was > 100 µM (inactive).
`COc1cc(C2SCC(=O)N2c2ccc(-n3c(-c4ccccc4)nc4ccccc4c3=O)cc2)cc(OC)c1OC` (centres undefined) was tested, and the GI50 (A498) was > 100 µM (inactive), the GI50 (A549) was > 100 µM (inactive) and the GI50 (DU-145) was > 100 µM (inactive). For the same molecule, the GI50 (HL-60) was > 100 µM (inactive), the GI50 (HT-29) was > 100 µM (inactive) and the GI50 (Hs-578T) was 20.1 µM (inactive). For the same molecule, the GI50 (NCI-H460) was > 100 µM (inactive), the GI50 (OVCAR-3) was > 100 µM (inactive) and the GI50 (SF-268) was 82.4 µM (inactive). The GI50 (SF-295) was > 100 µM (inactive), the GI50 (SK-MEL-28) was > 100 µM (inactive) and the GI50 (SK-MEL-2) was > 100 µM (inactive). The GI50 (SN12C) was > 100 µM (inactive), the GI50 (SR) was 45.4 µM (inactive) and the GI50 (SW-620) was > 100 µM (inactive). The GI50 (TK-10) was > 100 µM (inactive), the GI50 (UACC-257) was > 100 µM (inactive) and the GI50 (UO-31) was 8.71 µM (inactive).
With `C/C(=N\Nc1ccc([N+](=O)[O-])cc1[N+](=O)[O-])c1sc(-n2nc(-c3ccccc3)cc2-c2ccccc2)nc1C` the GI50 (A498) was 41 µM (inactive), the GI50 (DU-145) was 35.5 µM (inactive) and the GI50 (HL-60) was 12.6 µM (inactive). For the same molecule, the GI50 (HT-29) was 17 µM (inactive), the GI50 (Hs-578T) was 78.9 µM (inactive) and the GI50 (NCI-H460) was 30.8 µM (inactive). For the same molecule, the GI50 (OVCAR-3) was 39.4 µM (inactive), the GI50 (SF-268) was 44.2 µM (inactive) and the GI50 (SF-295) was 35.7 µM (inactive). For the same molecule, the GI50 (SK-MEL-28) was 90.2 µM (inactive), the GI50 (SN12C) was 50.1 µM (inactive) and the GI50 (SNB-75) was 45.5 µM (inactive). The GI50 (SR) was 18.3 µM (inactive), the GI50 (SW-620) was 26.3 µM (inactive) and the GI50 (TK-10) was 27.9 µM (inactive). The GI50 (UACC-257) was 20.8 µM (inactive) and the GI50 (UO-31) was 19.8 µM (inactive).
For `CC1(C)[C@@H](Cn2ccc(=O)[nH]c2=O)CC[C@@]1(C)CO`, the GI50 (A498) was > 100 µM (inactive), the GI50 (A549) was > 100 µM (inactive) and the GI50 (DU-145) was > 100 µM (inactive). The GI50 (Hs-578T) was > 100 µM (inactive), the GI50 (OVCAR-3) was 81.5 µM (inactive) and the GI50 (RXF 393) was 59.2 µM (inactive). The GI50 (SF-268) was > 100 µM (inactive), the GI50 (SF-295) was > 100 µM (inactive) and the GI50 (SK-MEL-28) was > 100 µM (inactive). The GI50 (SK-MEL-2) was > 100 µM (inactive), the GI50 (SN12C) was > 100 µM (inactive) and the GI50 (SNB-75) was > 100 µM (inactive). The GI50 (SW-620) was > 100 µM (inactive), the GI50 (TK-10) was > 100 µM (inactive) and the GI50 (UACC-257) was > 100 µM (inactive). For the same molecule, the GI50 (UO-31) was > 100 µM (inactive).
For `Oc1cc(-c2ccccc2)nc2ncccc12`, the GI50 (A498) was > 100 µM (inactive), the GI50 (A549) was 0.385 µM (active) and the GI50 (DU-145) was 0.298 µM (active). The GI50 (HL-60) was 0.0471 µM (active), the GI50 (HT-29) was 0.0646 µM (active) and the GI50 (Hs-578T) was 0.16 µM (active). The GI50 (NCI-H460) was 0.12 µM (active), the GI50 (OVCAR-3) was 0.145 µM (active) and the GI50 (RXF 393) was 0.106 µM (active). The GI50 (SF-268) was 1.93 µM (inactive), the GI50 (SF-295) was 0.0698 µM (active) and the GI50 (SK-MEL-28) was 0.0743 µM (active). The GI50 (SK-MEL-2) was 0.0303 µM (active), the GI50 (SN12C) was 0.268 µM (active) and the GI50 (SNB-75) was 0.0975 µM (active). For the same molecule, the GI50 (SW-620) was 0.0438 µM (active), the GI50 (TK-10) was 0.206 µM (active) and the GI50 (UACC-257) was 0.203 µM (active). The GI50 (UO-31) was 0.272 µM (active).
